Laboratory results taken from patent US11739074B2, “Ras inhibitors” (Revolution Medicines, Inc., priority 2019, dated 2023).
Read-outs that look alike come from different tables or passages of the source.

Key:
AsPC-1 (K-Ras G12D) [1] = test: Potency assay: pERK in AsPC-1 cells; type: cell-based; conditions: Homo sapiens
KRAS G12V = KRAS G12V (Homo sapiens, UniProt P01116+P62937, G12V); test: Ras-Raf disruption/FRET/MOA assay, KRAS G12V; type: biochemical; conditions: disruption of BRAF RBD binding, with Cyclophilin A; read-out: KRAS G12V FRET IC50
From the text: (§1) Disruption of B-Raf Ras-Binding Domain (BRAF^RBD) Interaction with K-Ras by Compounds of the Invention (Also Called a FRET Assay or an MOA Assay)
(§2) Note—The following protocol describes a procedure for monitoring disruption of K-Ras G12C (GMP-PNP) binding to BRAF^RBD by a compound of the invention. This protocol may also be executed substituting other Ras proteins or nucleotides, such as K-Ras G12D and K-Ras G13D.
(§3) The purpose of this biochemical assay was to measure the ability of test compounds to facilitate ternary complex formation between a nucleotide-loaded K-Ras isoform and Cyclophilin A; the resulting ternary complex disrupts binding to a BRAF^RBD construct, inhibiting K-Ras signaling through a RAF effector.
(§4) In assay buffer containing 25 mM HEPES pH 7.3, 0.002% Tween20, 0.1% BSA, 100 mM NaCl and 5 mM MgCl2, tagless Cyclophilin A, His6-K-Ras-GMPPNP, and GST-BRAF^RBD were combined in a 384-well assay plate at final concentrations of 25 μM, 12.5 nM, and 50 nM, respectively. Compound was present in plate wells as a 10-point 3-fold dilution series starting at a final concentration of 30 μM. After incubation at 25° C. for 3 hours, a mixture of anti-His Eu-W1024 and anti-GST allophycocyanin was then added to assay sample wells at final concentrations of 10 nM and 50 nM, respectively, and the reaction incubated for an additional 1.5 hours. […] Compounds that facilitate disruption of a K-Ras:RAF complex were identified as those eliciting a decrease in the TR-FRET ratio relative to DMSO control wells.

KRAS G12S = KRAS G12S (Homo sapiens, UniProt P01116+P62937, G12S); test: Ras-Raf disruption/FRET/MOA assay, KRAS G12S; type: biochemical; conditions: disruption of BRAF RBD binding, with Cyclophilin A; read-out: KRAS G12S FRET IC50
From the text: as §1, §2, §3, §4

KRAS G12D = KRAS G12D (Homo sapiens, UniProt P01116+P62937, G12D); test: Ras-Raf disruption/FRET/MOA assay, KRAS G12D; type: biochemical; conditions: disruption of BRAF RBD binding, with Cyclophilin A; read-out: KRAS G12D FRET IC50
From the text: as §1, §2, §3, §4

KRAS WT = KRAS WT (Homo sapiens, UniProt P01116+P62937); test: Ras-Raf disruption/FRET/MOA assay, KRAS WT; type: biochemical; conditions: disruption of BRAF RBD binding, with Cyclophilin A; read-out: KRAS WT FRET IC50
From the text: as §1, §2, §3, §4

KRAS G12C = KRAS G12C (Homo sapiens, UniProt P01116+P62937, G12C); test: Ras-Raf disruption/FRET/MOA assay, KRAS G12C; type: biochemical; conditions: disruption of BRAF RBD binding, with Cyclophilin A; read-out: KRAS G12C FRET IC50
From the text: as §1, §2, §3, §4

KRAS G13C = KRAS G13C (Homo sapiens, UniProt P01116+P62937, G13C); test: Ras-Raf disruption/FRET/MOA assay, KRAS G13C; type: biochemical; conditions: disruption of BRAF RBD binding, with Cyclophilin A; read-out: KRAS G13C FRET IC50
From the text: as §1, §2, §3, §4

KRAS G13D = KRAS G13D (Homo sapiens, UniProt P01116+P62937, G13D); test: Ras-Raf disruption/FRET/MOA assay, KRAS G13D; type: biochemical; conditions: disruption of BRAF RBD binding, with Cyclophilin A; read-out: KRAS G13D FRET IC50
From the text: as §1, §2, §3, §4

NRAS G12C = biological target: T1, NRAS G12C (Homo sapiens, UniProt P01111+P62937, G12C); test: Ras-Raf disruption/FRET/MOA assay, NRAS G12C; type: biochemical; conditions: NRAS G12C; read-out: NRAS G12C FRET data IC50
T1 construct: His6
From the text: as §1, §2, §3, §4

AsPC-1 (K-Ras G12D) [2] = test: CellTiter-Glo cell viability assay, AsPC-1; type: cell-based; conditions: Homo sapiens, ASPC1, 120 h, read-out: AsPC-1 Cell Viability IC50
Outline: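 Direct compound addition to plated cells; 5-day exposure; ~30 min RT equilibration; CellTiter-Glo luminescence. Normalization: (sample/avg DMSO)*100; 4-parameter logistic curve fit.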

[3] = ASPC1, AsPC-1 cells, K-Ras G12D, read-out: pERK EC50 (AsPC-1 KRAS G12D)
[4] = AsPC-1, K-Ras G12D, 5-day treatment
[5] = ASPC1, read-out: pERK EC50 (AsPC-1 KRAS G12D)

T1 sequence (P01111 whole entry G12C): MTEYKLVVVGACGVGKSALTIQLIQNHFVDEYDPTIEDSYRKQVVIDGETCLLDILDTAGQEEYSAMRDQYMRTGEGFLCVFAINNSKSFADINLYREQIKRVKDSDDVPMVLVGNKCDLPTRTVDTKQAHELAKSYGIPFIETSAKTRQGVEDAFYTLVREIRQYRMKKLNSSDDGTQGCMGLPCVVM
T1 sequence (P62937 whole entry): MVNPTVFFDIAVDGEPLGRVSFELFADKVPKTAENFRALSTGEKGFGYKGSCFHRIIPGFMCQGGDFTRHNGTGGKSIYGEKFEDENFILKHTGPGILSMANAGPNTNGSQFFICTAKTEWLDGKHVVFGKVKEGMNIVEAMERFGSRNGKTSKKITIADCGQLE
Sequence of KRAS G12S (P01116 1-169 isoform P01116-2 G12S limits assumed): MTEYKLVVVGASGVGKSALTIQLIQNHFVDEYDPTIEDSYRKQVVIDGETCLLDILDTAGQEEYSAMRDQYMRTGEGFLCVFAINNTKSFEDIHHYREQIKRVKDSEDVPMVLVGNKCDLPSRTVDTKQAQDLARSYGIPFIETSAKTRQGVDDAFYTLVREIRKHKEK
Sequence of KRAS G12S (P62937 whole entry): as the sequence (P62937 whole entry) above
Sequence of KRAS G13D (P01116 1-169 isoform P01116-2 G13D limits assumed): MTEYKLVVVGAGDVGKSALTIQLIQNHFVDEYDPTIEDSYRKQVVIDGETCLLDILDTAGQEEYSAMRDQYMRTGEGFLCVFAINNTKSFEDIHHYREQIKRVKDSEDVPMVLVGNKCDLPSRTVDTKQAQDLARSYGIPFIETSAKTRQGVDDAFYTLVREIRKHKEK
Sequence of KRAS G13D (P62937 whole entry): as the sequence (P62937 whole entry) above
Sequence of KRAS G12C (P01116 1-169 isoform P01116-2 G12C limits assumed): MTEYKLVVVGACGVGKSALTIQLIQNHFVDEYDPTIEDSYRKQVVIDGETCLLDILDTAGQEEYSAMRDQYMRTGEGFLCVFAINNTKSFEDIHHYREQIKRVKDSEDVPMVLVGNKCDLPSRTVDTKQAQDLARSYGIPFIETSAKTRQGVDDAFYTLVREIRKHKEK
Sequence of KRAS G12C (P62937 whole entry): as the sequence (P62937 whole entry) above
Sequence of KRAS WT (P01116 1-169 isoform P01116-2 limits assumed): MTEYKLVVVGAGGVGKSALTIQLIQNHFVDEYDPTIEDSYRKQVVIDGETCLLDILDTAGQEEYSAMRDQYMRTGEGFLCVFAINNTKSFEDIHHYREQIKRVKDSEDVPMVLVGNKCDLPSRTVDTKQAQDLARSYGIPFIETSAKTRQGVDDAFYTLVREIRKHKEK
Sequence of KRAS WT (P62937 whole entry): as the sequence (P62937 whole entry) above
Sequence of KRAS G12V (P01116 1-169 isoform P01116-2 G12V limits assumed): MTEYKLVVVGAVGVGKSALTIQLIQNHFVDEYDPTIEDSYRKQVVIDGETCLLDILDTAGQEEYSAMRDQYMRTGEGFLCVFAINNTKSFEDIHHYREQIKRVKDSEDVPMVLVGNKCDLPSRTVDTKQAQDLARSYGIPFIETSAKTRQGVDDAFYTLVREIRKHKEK
Sequence of KRAS G12V (P62937 whole entry, the tested form may be a part): as the sequence (P62937 whole entry) above
Sequence of KRAS G13C (P01116 1-169 isoform P01116-2 G13C limits assumed): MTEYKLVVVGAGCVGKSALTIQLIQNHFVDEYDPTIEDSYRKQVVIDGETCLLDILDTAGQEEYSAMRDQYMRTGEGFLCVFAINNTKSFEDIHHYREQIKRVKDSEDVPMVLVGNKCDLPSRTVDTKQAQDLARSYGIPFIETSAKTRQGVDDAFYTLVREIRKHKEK
Sequence of KRAS G13C (P62937 whole entry): as the sequence (P62937 whole entry) above
Sequence of KRAS G12D (P01116 1-169 isoform P01116-2 G12D limits assumed): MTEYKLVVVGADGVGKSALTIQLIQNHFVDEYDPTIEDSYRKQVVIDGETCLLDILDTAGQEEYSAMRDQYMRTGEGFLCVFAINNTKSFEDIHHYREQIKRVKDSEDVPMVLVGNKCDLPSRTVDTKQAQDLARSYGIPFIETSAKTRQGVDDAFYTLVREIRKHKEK
Sequence of KRAS G12D (P62937 whole entry): as the sequence (P62937 whole entry) above

## CCn1c(-c2cccnc2[C@H](C)OC)c2c3cc(ccc31)-c1cc(O)cc(c1)C[C@H](NC(=O)[C@H](C(C)C)N1CC[C@@]3(CCN(C[C@H]4CN4)C3)C1=O)C(=O)N1CCC[C@H](N1)C(=O)OCC(C)(C)C2 [Compound 193]
AsPC-1 (K-Ras G12D) [1]; [3]
  EC50: < 5000 nM
KRAS G12V
  IC50: 1000 to 10000 nM
KRAS G12S
  IC50: 100 to 1000 nM
KRAS G12D
  IC50: 100 to 1000 nM
KRAS WT
  IC50: 10 to 100 nM
KRAS G12C
  IC50: 10 to 100 nM
KRAS G13C
  IC50: 10 to 100 nM
KRAS G13D
  IC50: 10 to 100 nM
NRAS G12C
  IC50: 10 to 100 nM
AsPC-1 (K-Ras G12D) [2]; [4]
  IC50: 1000 to 10000 nM

## CCn1c(-c2cccnc2[C@H](C)OC)c2c3cc(ccc31)-c1cc(O)cc(c1)C[C@H](NC(=O)[C@H](C(C)C)N1CCC3(CCN(C(=O)[C@H]4CN4)CC3)C1=O)C(=O)N1CCC[C@H](N1)C(=O)OCC(C)(C)C2 [Compound 196]
AsPC-1 (K-Ras G12D) [1]; [3]
  EC50: < 5000 nM
KRAS G12V
  IC50: 100 to 1000 nM
KRAS G12S
  IC50: 100 to 1000 nM
KRAS G12D
  IC50: 100 to 1000 nM
KRAS WT
  IC50: 10 to 100 nM
KRAS G12C
  IC50: < 10 nM
KRAS G13C
  IC50: 10 to 100 nM
KRAS G13D
  IC50: 10 to 100 nM
NRAS G12C
  IC50: < 10 nM
AsPC-1 (K-Ras G12D) [2]; [4]
  IC50: 1000 to 10000 nM

## CCn1c(-c2cccnc2[C@H](C)OC)c2c3cc(ccc31)-c1cc(O)cc(c1)C[C@H](NC(=O)[C@H](C(C)C)N1CC[C@@]3(CCCN(C(=O)[C@H]4CN4)C3)C1=O)C(=O)N1CCC[C@H](N1)C(=O)OCC(C)(C)C2 [Compound 199]
AsPC-1 (K-Ras G12D) [1]; [3]
  EC50: < 5000 nM
KRAS G12V
  IC50: 100 to 1000 nM
KRAS G12S
  IC50: 100 to 1000 nM
KRAS G12D
  IC50: 100 to 1000 nM
KRAS WT
  IC50: 100 to 1000 nM
KRAS G12C
  IC50: 100 to 1000 nM
KRAS G13C
  IC50: 100 to 1000 nM
KRAS G13D
  IC50: 100 to 1000 nM
NRAS G12C
  IC50: 100 to 1000 nM
AsPC-1 (K-Ras G12D) [2]; [4]
  IC50: 1000 to 10000 nM

## CCn1c(-c2cccnc2[C@H](C)OC)c2c3cc(ccc31)-c1cc(O)cc(c1)C[C@H](NC(=O)[C@H](C(C)C)N1CC[C@]3(CCCN(C(=O)[C@H]4CN4)C3)C1=O)C(=O)N1CCC[C@H](N1)C(=O)OCC(C)(C)C2 [Compound 200]
AsPC-1 (K-Ras G12D) [1]; [3]
  EC50: < 5000 nM
KRAS G12V
  IC50: 10 to 100 nM
KRAS G12S
  IC50: 10 to 100 nM
KRAS G12D
  IC50: 100 to 1000 nM
KRAS WT
  IC50: 100 to 1000 nM
KRAS G12C
  IC50: < 10 nM
KRAS G13C
  IC50: 10 to 100 nM
KRAS G13D
  IC50: 100 to 1000 nM
NRAS G12C
  IC50: < 10 nM
AsPC-1 (K-Ras G12D) [2]; [4]
  IC50: 1000 to 10000 nM

## CCn1c(-c2cnccc2COC)c2c3cc(ccc31)-c1cc(O)cc(c1)C[C@H](NC(=O)[C@H](C(C)C)N(C)C(=O)CN(C)C(=O)[C@H]1CN1C(C)=O)C(=O)N1CCC[C@H](N1)C(=O)OCC(C)(C)C2 [Example 34, (2R)-1-acetyl-N-(2-(((2S)-1-(((6^3S,4S)-1^1-ethyl-2^5-hydroxy-1^2-(4-(methoxymethyl)pyridin-3-yl)-10,10-dimethyl-5,7-dioxo-6^1,6^2,6^3,6^4,6^5,6^6-hexahydro-1^1H-8-oxa-1(5,3)-indola-6(1,3)-pyridazina-2(1,3)-benzenacycloundecaphane-4-yl)amino)-3-methyl-1-oxobutan-2-yl)(methyl)amino)-2-oxoethyl)-N-methylaziridine-2-carboxamide]
AsPC-1 (K-Ras G12D) [1]; [5]
  EC50: < 5000 nM
KRAS G12V
  IC50: 100 to 1000 nM
KRAS G12S
  IC50: 10 to 100 nM
KRAS G12D
  IC50: 100 to 1000 nM
KRAS WT
  IC50: 100 to 1000 nM
KRAS G12C
  IC50: 10 to 100 nM
KRAS G13C
  IC50: 10 to 100 nM
KRAS G13D
  IC50: 100 to 1000 nM
NRAS G12C
  IC50: 10 to 100 nM
AsPC-1 (K-Ras G12D) [2]
  IC50: 1000 to 10000 nM

## CCn1c(-c2cnccc2COC)c2c3cc(ccc31)-c1cc(O)cc(c1)C[C@H](NC(=O)[C@H](C(C)C)N(C)C(=O)CN(C)C(=O)[C@H]1CN1C(=O)OC)C(=O)N1CCC[C@H](N1)C(=O)OCC(C)(C)C2 [Example 38, methyl (2R)-2-((2-(((2S)-1-(((6^3S,4S)-1^1-ethyl-2^5-hydroxy-1^2-(4-(methoxymethyl)pyridin-3-yl)-10,10-dimethyl-5,7-dioxo-6^1,6^2,6^3,6^4,6^5,6^6-hexahydro-1^1H-8-oxa-1(5,3)-indola-6(1,3)-pyridazina-2(1,3)-benzenacycloundecaphane-4-yl)amino)-3-methyl-1-oxobutan-2-yl)(methyl)amino)-2-oxoethyl)(methyl)carbamoyl)aziridine-1-carboxylate]
AsPC-1 (K-Ras G12D) [1]; [5]
  EC50: < 5000 nM
KRAS G12V
  IC50: 100 to 1000 nM
KRAS G12S
  IC50: 10 to 100 nM
KRAS G12D
  IC50: 100 to 1000 nM
KRAS WT
  IC50: 100 to 1000 nM
KRAS G12C
  IC50: 10 to 100 nM
KRAS G13C
  IC50: 10 to 100 nM
KRAS G13D
  IC50: 100 to 1000 nM
NRAS G12C
  IC50: 10 to 100 nM
AsPC-1 (K-Ras G12D) [2]
  IC50: 1000 to 10000 nM
